{
  "source": "paper PMC10454409",
  "about": "“Hybrids of Sterically Hindered Phenols and Diaryl Ureas: Synthesis, Switch from Antioxidant Activity to ROS Generation and Induction of Apoptosis” (International Journal of Molecular Sciences, 2023)",
  "key": {"[1]": {"system": "MCF-7 cells (human breast adenocarcinoma)", "experiment": "MTT cytotoxicity test, MCF-7", "format": "cell-based", "details": "Homo sapiens, MCF7, MTT test; 24 h incubation per text, 48 h per method", "how_it_was_run": "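Viable MCF-7 cells quantified by MTT reduction to formazan, dissolved in DMSO and read at 540 nm. Triplicate experiments.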"}, "[2]": {"system": "SH-SY5Y cells (neuroblastoma)", "experiment": "MTT cytotoxicity test, SH-SY5Y", "format": "cell-based", "details": "Homo sapiens, SH-SY5Y; MTT test; 24 h incubation per text, 48 h per method", "how_it_was_run": "(§1)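 Cells seeded at 5 × 10^3 per well and grown at 37 °C to monolayer, then exposed to compounds for 48 h. Viability by MTT (0.5 mg/mL, serum-free medium, 4 h, 37 °C), formazan dissolved in DMSO, OD 540 nm. IC50 estimated from triplicate experiments.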"}, "[3]": {"system": "isolated rat liver mitochondria", "experiment": "Membrane potential of isolated mitochondria (Safranin A)", "format": "biochemical", "details": "for Depolarization of mitochondrial membrane: isolated mitochondria", "description": "The membrane potential of rat […] mitochondria was measured with a Victor 3 plate analyzer (Perkin Elmer, Hamburg, Germany) using the potential-dependent indicator Safranin A [57]. The mitochondrial preparation was diluted in a buffer containing mannitol (225 mM) (Dia-M, Moscow, Russia), sucrose (75 mM) (Sigma Aldrich, Saint Louis, MO, USA), HEPES (10 mM) (Gibco, Scotland, UK), EGTA (20 µM) (Dia-M, Moscow, Russia) and KH2PO4 (1 mM) at pH = 7.4 at a ratio of 0.5 mg of protein to 1 mL of medium. Safranin A (5 µM) was added to the suspension immediately before the start of the measurement. The organelles were then energized by potassium succinate (5 mM) in the presence of rotenone (1 µM). Mitochondrial pore opening was induced by the addition of CaCl2 (25 µM).\nFigure 8 Effect of the synthesized compounds on the membrane potential of rat liver mitochondria. (a) Kinetic lines of transmembrane potential changes at λex = 458 nm and λem = 590 nm. The concentration of the test substances was 100 µM. (b) Calculated parameters of % depolarization relative to control samples. Statistical significance was assessed using one-way ANOVA and Dunnett’s multiple comparison tests, where **** p < 0.0001 vs. control. (c) Concentration dependence of the effects of 11b and 17b on mitochondrial membrane potential. The concentration of the test substances was from 20 to 200 µM. Concentration of ions; Ca^2+—25 µM. Mitochondria were energized by potassium succinate and rotenone. Data are presented as mean±error of the mean (n = 3)."}, "[4]": {"system": "SH-SY5Y neuroblastoma cells", "experiment": "Glycolysis stress test (Seahorse XF96e, ECAR)", "format": "cell-based", "details": "compound 100 µM", "description": "We studied the ability of compounds to inhibit aerobic glycolysis using the Agilent Seahorse XF96e Analyzer (Seahorse Bioscience, North Billerica, MA, USA) assay of cellular metabolism on the level of proton production in samples examined on the SH-SY5Y neuroblastoma cell line using glycolysis stress tests. The extracellular acidification rate of the medium was measured in real time, which allowed us to assess the intensity of glycolysis in the cells by recording the main parameters of glycolytic function: basal glycolysis, glycolytic capacity and glycolytic reserve. Glycolytic capacity describes the maximum amount of glycolysis/glucose breakdown the cells can perform acutely, whereas glycolytic reserve is defined as the difference between the basal and maximal glycolytic capacity.\nThe ability of synthesized compounds to modulate […] glycolysis was studied using the Agilent Seahorse XF96e Analyzer (Seahorse Bioscience, Billerica, MA, USA) on the neuroblastoma SH-SY5Y cell line (40,000 cells per well) as described earlier.\nGlycolysis was measured by subtracting the maximum rate of extracellular acidification of the medium before glucose injection from the maximum rate before oligomycin injection. Glycolytic capacity was measured by subtracting the maximum velocity value before glucose injection from the maximum velocity value after oligomycin injection. Glycolytic reserve was defined as the difference between glycolytic capacity and glycolysis.\nFigure 6 Effect of synthesized compounds on the glycolytic profile of (a–c) SH-SY5Y tumor cells and (d) calculated parameters of glycolytic function. […] The concentration of compounds was 100 µM, glucose—10 mM, oligomycin—1 µM и 2-fluoro-2-deoxy-D-glucose—25 mM. Data are presented as mean±error of the mean (n = 3). Statistical significance was assessed using one-way ANOVA and Dunnett’s multiple comparison tests, where **** p < 0.0001, *** p < 0.001, ** p < 0.01 and * p < 0.05 vs. control."}, "[5]": {"system": "M-HeLa cells (human cervix epithelioid carcinoma)", "experiment": "MTT cytotoxicity test, M-HeLa", "format": "cell-based", "how_it_was_run": "as §1"}, "[6]": {"system": "HuTu 80 cells", "experiment": "Intracellular ROS level, CellROX Deep Red flow cytometry", "format": "cell-based, human", "details": "48 h incubation, maximum concentration (IC50)"}, "[7]": {"system": "HuTu 80 cells (human duodenal adenocarcinoma)", "experiment": "MTT cytotoxicity test, HuTu 80", "format": "cell-based", "how_it_was_run": "as §1"}},
  "note": "Like-named read-outs stand apart in the source and are kept apart here.",
  "data": [
    {"molecule": "CCOP(=O)(OCC)C(c1cc(C(C)(C)C)c(O)c(C(C)(C)C)c1)c1ccc(NC(=O)Nc2ccc([N+](=O)[O-])cc2)cc1NC(=O)Nc1ccc([N+](=O)[O-])cc1", "note": "(stereo not shown) [17b]", "values": [
      {"measurement": "IC50", "setting": "[1]", "result": "51 ± 4.2", "unit": "µM"},
      {"measurement": "IC50", "setting": "[2]", "result": "54.8 ± 2.1", "unit": "µM"},
      {"measurement": "Depolarization of mitochondrial membrane", "setting": "[3]; compound 100 μM", "result": 50, "unit": "%"},
      {"measurement": "Depolarization of mitochondrial membrane", "setting": "[3]; compound 200 μM", "result": "~100", "unit": "%"},
      {"measurement": "Depolarization relative to control (class in Figure 8b)", "setting": "[3]; isolated rat liver mitochondria, compound 100 µM", "result": "High Depolarization"},
      {"measurement": "Glycolytic reserve", "setting": "[4]", "result": "ability to decrease glycolytic reserves"},
      {"measurement": "Glycolysis: rate of extracellular acidification after saturating glucose", "setting": "[4]; glucose 10 mM", "result": "decrease in the rate of extracellular acidification"},
      {"measurement": "Glycolytic capacity", "setting": "[4]; oligomycin 1 µM", "result": "decrease in glycolytic capacity"},
      {"measurement": "IC50", "setting": "[5]; Homo sapiens, M-HeLa, MTT test, 24 h incubation per text, 48 h per method", "result": "24.3 ± 1.9", "unit": "µM"},
      {"measurement": "SI, selectivity index relative to Chang liver, M-HeLa", "setting": "[5]; M-HeLa vs Chang liver", "result": "~3"},
      {"measurement": "Intracellular ROS level", "setting": "[6]", "result": "400.2 ± 5.2", "unit": "%"},
      {"measurement": "IC50", "setting": "[7]; Homo sapiens, HuTu80, read-out: IC50, HuTu 80", "result": "< 15", "unit": "µM"},
      {"measurement": "IC50", "setting": "[7]; read-out: IC50, HuTu 80", "result": 13.2, "unit": "µM"}
    ]}
  ]
}
